Test results reported in ChEMBL document CHEMBL1909046, “DrugMatrix in vitro pharmacology data”.
pIC50, pKi: −log10 of the molar value.

Tests used:
D(1A) dopamine receptor = D(1A) dopamine receptor (Homo sapiens, UniProt P21728); assay: DRUGMATRIX: Dopamine D1 radioligand binding (ligand: [3H] SCH-23390); format: cell membranes, CHO, Membrane; conditions: Not Active = under 50% inhibition at 10 µM; for IC50 / Ki: cho; for pIC50: read-out: IC50; for pKi: read-out: Ki
[1] = DRUGMATRIX: Phorbol Ester radioligand binding (ligand: [3H] PDBu); format: cell membranes, Mus musculus, ICR, Brain, Membrane; conditions: Not Active = under 50% inhibition at 10 µM
[2] = biological target: Receptor tyrosine-protein kinase erbB-2 (Homo sapiens, UniProt P04626); format: cell-based; conditions: insect cells;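 further: inhibition of HER2 kinase enzyme activity, measured with Poly(Glu:Tyr) as the phosphorylation substrate; in other assays of this panel Not Active means under 50% inhibition at 10 µM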
[3] = biological target: T1, Alpha-2C adrenergic receptor (Homo sapiens, UniProt P18825); assay: DRUGMATRIX: Adrenergic Alpha-2C radioligand binding (ligand: [3H] MK-912); format: cell membranes, Sf9, Membrane; conditions: for IC50 / Ki: sf9; for pIC50: read-out: IC50; for pKi: read-out: Ki
T1 sequence (P18825 whole entry): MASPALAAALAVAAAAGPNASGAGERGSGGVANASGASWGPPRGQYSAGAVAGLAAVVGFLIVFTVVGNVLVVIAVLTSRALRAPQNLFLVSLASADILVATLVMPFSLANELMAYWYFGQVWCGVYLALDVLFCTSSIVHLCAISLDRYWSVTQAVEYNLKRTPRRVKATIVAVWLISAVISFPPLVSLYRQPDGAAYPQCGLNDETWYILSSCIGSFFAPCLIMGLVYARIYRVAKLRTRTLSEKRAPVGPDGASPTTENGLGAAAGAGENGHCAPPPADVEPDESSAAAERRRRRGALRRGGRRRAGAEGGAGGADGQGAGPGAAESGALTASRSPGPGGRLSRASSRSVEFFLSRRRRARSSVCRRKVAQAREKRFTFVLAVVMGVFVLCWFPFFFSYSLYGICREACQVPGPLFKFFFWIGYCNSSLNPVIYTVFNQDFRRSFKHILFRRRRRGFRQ

Cathepsin G = biological target: T2, Cathepsin G (Homo sapiens, UniProt P08311); assay: biochemical; format: tissue-based, Neutrophil; conditions: neutrophil;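 further: inhibition of Cathepsin G enzyme activity, tested on an AMC-conjugated peptide substrate; in other assays of this panel Not Active means under 50% inhibition at 10 µM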
T2 sequence (P08311 whole entry): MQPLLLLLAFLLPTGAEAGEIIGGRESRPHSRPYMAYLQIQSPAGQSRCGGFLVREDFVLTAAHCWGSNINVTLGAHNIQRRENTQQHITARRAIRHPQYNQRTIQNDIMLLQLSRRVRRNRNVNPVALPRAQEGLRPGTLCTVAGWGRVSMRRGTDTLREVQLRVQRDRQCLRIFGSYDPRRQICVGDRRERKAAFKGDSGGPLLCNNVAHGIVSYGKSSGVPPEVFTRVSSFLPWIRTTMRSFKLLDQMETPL

[4] = biological target: T3, Alpha-2A adrenergic receptor (Homo sapiens, UniProt P08913); format: cell membranes, Sf9, Membrane; conditions: for IC50 / Ki: sf9; for pIC50: read-out: IC50; for pKi: read-out: Ki; on all read-outs here: in other assays of this panel Not Active means under 50% inhibition at 10 µM
T3 sequence (P08913 whole entry): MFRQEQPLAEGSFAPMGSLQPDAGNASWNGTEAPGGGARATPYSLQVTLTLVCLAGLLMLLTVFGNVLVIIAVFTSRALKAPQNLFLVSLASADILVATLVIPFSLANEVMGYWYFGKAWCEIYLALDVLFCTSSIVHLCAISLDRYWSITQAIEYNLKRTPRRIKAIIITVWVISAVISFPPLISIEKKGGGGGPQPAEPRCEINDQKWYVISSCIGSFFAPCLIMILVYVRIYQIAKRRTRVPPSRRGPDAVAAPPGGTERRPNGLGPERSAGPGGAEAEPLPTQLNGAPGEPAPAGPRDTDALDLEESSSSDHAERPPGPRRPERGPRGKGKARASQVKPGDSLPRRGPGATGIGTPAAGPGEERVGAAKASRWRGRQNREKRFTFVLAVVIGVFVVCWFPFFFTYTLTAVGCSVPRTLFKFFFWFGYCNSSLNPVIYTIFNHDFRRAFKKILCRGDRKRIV

Sequence of D(1A) dopamine receptor (P21728 whole entry): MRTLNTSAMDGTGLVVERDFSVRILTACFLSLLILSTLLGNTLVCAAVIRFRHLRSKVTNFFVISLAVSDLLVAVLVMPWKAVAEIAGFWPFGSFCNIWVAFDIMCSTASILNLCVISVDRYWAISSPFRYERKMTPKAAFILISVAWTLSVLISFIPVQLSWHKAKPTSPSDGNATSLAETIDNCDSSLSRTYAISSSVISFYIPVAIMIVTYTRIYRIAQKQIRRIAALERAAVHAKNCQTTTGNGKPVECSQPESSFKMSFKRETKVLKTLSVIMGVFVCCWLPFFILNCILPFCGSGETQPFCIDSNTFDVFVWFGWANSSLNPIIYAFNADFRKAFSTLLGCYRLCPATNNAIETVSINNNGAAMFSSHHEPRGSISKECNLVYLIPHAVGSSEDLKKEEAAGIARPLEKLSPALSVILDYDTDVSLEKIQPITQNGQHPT

Compound | IC50 (D(1A) dopamine receptor) | IC50 [1] | Ki [1] | IC50 [2] | IC50 [3] | IC50 (Cathepsin G) | IC50 [4] | Ki (D(1A) dopamine receptor) | Ki [2] | Ki [3] | Ki (Cathepsin G) | Ki [4] | pIC50 [3] | pKi [3] | pIC50 [4] | pKi [4] | pIC50 (D(1A) dopamine receptor) | pKi (D(1A) dopamine receptor)
COc1ccc(Cl)cc1C(=O)NCCc1ccc(S(=O)(=O)NC(=O)NC2CCCCC2)cc1 [GLYBURIDE] | Not Active | Not Active | Not Active | Not Active | Not Active | Not Active | Not Active |  |  |  |  |  |  |  |  |  |  | 
CHROMIC CHLORIDE | Not Active | Not Active | Not Active | Not Active | Not Active | Not Active | Not Active | Not Active | Not Active | Not Active | Not Active | Not Active |  |  |  |  |  | 
CCN1C[C@]2(COC)[C@H](O)C[C@H](OC)[C@@]34[C@@H]5C[C@@]6(O)[C@H](OC(=O)c7ccccc7)[C@@H]5[C@@](OC(C)=O)([C@@H]([C@H](OC)[C@H]23)[C@@H]14)[C@@H](O)[C@@H]6OC [ACONITINE] | Not Active | Not Active | Not Active | Not Active | Not Active | Not Active | Not Active |  |  |  |  |  |  |  |  |  |  | 
O=C(O)CCc1nc(-c2ccccc2)c(-c2ccccc2)o1 [OXAPROZIN] | Not Active | Not Active | Not Active | Not Active | Not Active | Not Active | Not Active |  |  |  |  |  |  |  |  |  |  | 
Cc1ccnc2c1NC(=O)c1cccnc1N2C1CC1 [NEVIRAPINE] | Not Active | Not Active | Not Active | Not Active | Not Active | Not Active | Not Active |  |  |  |  |  |  |  |  |  |  | 
Clc1cc(Cl)c(OCC#CI)cc1Cl [HALOPROGIN] |  | Not Active | Not Active | Not Active |  | Not Active |  |  |  |  |  |  | 5.39 | 6.23 | 5.91 | 6.34 |  | 
COc1ccccc1OCCNCC(O)COc1cccc2[nH]c3ccccc3c12 (centres undefined) [CARVEDILOL] |  | Not Active | Not Active | Not Active |  | Not Active |  |  |  |  |  |  | 7.05 | 7.89 | 6.97 | 7.40 | 5.82 | 6.13
CCN1CCN(c2cc3c(cc2F)c(=O)c(C(=O)O)cn3C2CC2)CC1 [ENROFLOXACIN] | Not Active | Not Active | Not Active | Not Active | Not Active | Not Active | Not Active |  |  |  |  |  |  |  |  |  |  | 
POVIDONE | Not Active | Not Active | Not Active | Not Active | Not Active | Not Active | Not Active | Not Active | Not Active | Not Active | Not Active | Not Active |  |  |  |  |  | 
C=C(Cl)Cl [1,1-DICHLOROETHENE] | Not Active | Not Active | Not Active | Not Active | Not Active | Not Active | Not Active |  |  |  |  |  |  |  |  |  |  | 
CC(=O)[C@]1(O)Cc2c(O)c3c(c(O)c2[C@@H](O[C@H]2C[C@H](N)[C@H](O)[C@H](C)O2)C1)C(=O)c1ccccc1C3=O [IDARUBICIN] | Not Active | Not Active | Not Active | Not Active | Not Active | Not Active | Not Active |  |  |  |  |  |  |  |  |  |  | 
NC(=O)CN1CCCC1=O | Not Active | Not Active | Not Active | Not Active | Not Active | Not Active | Not Active |  |  |  |  |  |  |  |  |  |  | 
CO[C@H]1O[C@@H]2O[C@@]3(C)CC[C@H]4[C@H](C)CC[C@@H]([C@H]1C)[C@@]24OO3 | Not Active | Not Active | Not Active | Not Active | Not Active | Not Active | Not Active |  |  |  |  |  |  |  |  |  |  | 
CC12CCC(CC1)C(C)(C)O2 [EUCALYPTOL] | Not Active | Not Active | Not Active | Not Active | Not Active | Not Active | Not Active |  |  |  |  |  |  |  |  |  |  | 
C[N+](C)(C)CCOC(N)=O.[Cl-] [CARBACHOL] | Not Active | Not Active | Not Active | Not Active | Not Active | Not Active | Not Active |  |  |  |  |  |  |  |  |  |  | 
NS(=O)(=O)c1cc(C(=O)O)c(NCc2ccco2)cc1Cl [FUROSEMIDE] | Not Active | Not Active | Not Active | Not Active | Not Active | Not Active | Not Active |  |  |  |  |  |  |  |  |  |  | 
CC(C)NCC(O)COc1ccc(CC(N)=O)cc1 (centres undefined) [ATENOLOL] | Not Active | Not Active | Not Active | Not Active | Not Active | Not Active | Not Active |  |  |  |  |  |  |  |  |  |  | 
Oc1ncnc2[nH]ncc12 [ALLOPURINOL] | Not Active | Not Active | Not Active | Not Active | Not Active | Not Active | Not Active |  |  |  |  |  |  |  |  |  |  | 
NCC(CC(=O)O)c1ccc(Cl)cc1 (centres undefined) [BACLOFEN] | Not Active | Not Active | Not Active | Not Active | Not Active | Not Active | Not Active |  |  |  |  |  |  |  |  |  |  | 
O=C1CN(/N=C/c2ccc([N+](=O)[O-])o2)C(=O)N1 [NITROFURANTOIN] | Not Active | Not Active | Not Active | Not Active | Not Active | Not Active | Not Active |  |  |  |  |  |  |  |  |  |  | 
CC12CCC(CC1=O)C2(C)C (centres undefined) [CAMPHOR] | Not Active | Not Active | Not Active | Not Active | Not Active | Not Active | Not Active |  |  |  |  |  |  |  |  |  |  | 
Cc1c(N)nc([C@H](CC(N)=O)NC[C@H](N)C(N)=O)nc1C(=O)N[C@H](C(=O)N[C@H](C)[C@@H](O)[C@H](C)C(=O)N[C@H](C(=O)NCCc1nc(-c2nc(C(=O)NCCC[S+](C)C)cs2)cs1)[C@@H](C)O)[C@@H](O[C@@H]1O[C@@H](CO)[C@@H](O)[C@H](O)[C@@H]1O[C@H]1O[C@H](CO)[C@@H](O)[C@H](OC(N)=O)[C@@H]1O)c1c[nH]cn1.[Br-] [BLEOMYCIN A2] | Not Active | Not Active | Not Active | Not Active | Not Active | Not Active | Not Active |  |  |  |  |  |  |  |  |  |  | 
CN(Cc1cc(Br)cc(Br)c1N)C1CCCCC1 [BROMHEXINE] | Not Active | Not Active | Not Active | Not Active | Not Active | Not Active | Not Active |  |  |  |  |  |  |  |  |  |  | 
COPPER(II) OXIDE | Not Active | Not Active | Not Active | Not Active | Not Active | Not Active | Not Active | Not Active | Not Active | Not Active | Not Active | Not Active |  |  |  |  |  | 
CC(CN1c2ccccc2Sc2ccccc21)N(C)C (centres undefined) [PROMETHAZINE] |  | Not Active | Not Active | Not Active |  | Not Active |  |  |  |  |  |  | 5.61 | 6.45 |  |  | 5.56 | 5.86
NC(N)=Nc1nc(CSCCC(N)=NS(N)(=O)=O)cs1 [FAMOTIDINE] | Not Active | Not Active | Not Active | Not Active | Not Active | Not Active | Not Active |  |  |  |  |  |  |  |  |  |  | 
Cc1cc(C(C)(C)C)c(O)c(C)c1CC1=NCCN1 [OXYMETAZOLINE] | Not Active | Not Active | Not Active | Not Active |  | Not Active |  |  |  |  |  |  |  |  |  |  |  | 
CNC[C@H](O)c1ccc(O)c(O)c1 [EPINEPHRINE] | Not Active | Not Active | Not Active | Not Active |  | Not Active |  |  |  |  |  |  |  |  |  |  |  | 
CC1(COc2ccc(CC3SC(=O)NC3=O)cc2)CCCCC1 (centres undefined) [CIGLITAZONE] |  | Not Active | Not Active | Not Active | Not Active | Not Active |  |  |  |  |  |  |  |  | 4.78 | 5.21 |  | 
